{"source": "patent US9802943B2", "about": "“HIV inhibiting bicyclic pyrimidine derivatives” (Janssen Sciences Ireland UC, priority 2004, dated 2017)", "key": {"[1]": {"system": "Strain IIIB (wild type HIV-LAI strain)", "experiment": "cellular antiviral assay, wild type HIV", "type": "cell-based", "settings": "for EC50: Human immunodeficiency virus 1, IIIB, read-out: pEC50 IIIB (converted); for pEC50 IIIB: strain IIIB, wild type HIV-LAI", "experimental": "(§1) Because of the increasing emergence of drug resistant HIV strains, the present compounds were tested for their potency against clinically isolated HIV strains harboring several mutations. These mutations are associated with resistance to reverse transcriptase inhibitors and result in viruses that show various degrees of phenotypic cross-resistance to the currently commercially available drugs such as for instance AZT and delavirdine.\n(§2) The antiviral activity of the compound of the present invention has been evaluated in the presence of wild type HIV and HIV mutants bearing mutations at the reverse transcriptase gene. The activity of the compounds is evaluated using a cellular assay and the residual activity is expressed in pEC50 values. The columns IIIB and A-G in the table list the pEC50 values against various strains IIIB, A-G. • Strain IIIB is wild type HIV-LAI strain • Strain A contains mutation Y181C in HIV reverse transcriptase, • Strain B contains mutation K103N in HIV reverse transcriptase, • Strain C contains mutation L100I in HIV reverse transcriptase, • Strain D contains mutation Y188L in HIV reverse transcriptase, • Strain E contains mutations L100I and K103N in HIV reverse transcriptase, • Strain F contains mutations K103N and Y181C in HIV reverse transcriptase, and • Strain G contains mutations L100I, K103N, Y181C, V179I E138G L214F, V278V/I • and A327A/V in HIV reverse transcriptase."}, "[2]": {"system": "Strain A (mutation Y181C in HIV reverse transcriptase)", "experiment": "cellular antiviral assay, HIV mutant strain A", "type": "cell-based", "settings": "for EC50: Human immunodeficiency virus 1, read-out: pEC50 A (converted); for pEC50 A: strain A, Y181C", "experimental": "as §1, §2"}, "[3]": {"system": "Strain B (mutation K103N in HIV reverse transcriptase)", "experiment": "cellular antiviral assay, HIV mutant strain B", "type": "cell-based", "settings": "for EC50: Human immunodeficiency virus 1, read-out: pEC50 B (converted); for pEC50 B: strain B, K103N", "experimental": "as §1, §2"}, "[4]": {"system": "Strain C (mutation L100I in HIV reverse transcriptase)", "experiment": "cellular antiviral assay, HIV mutant strain C", "type": "cell-based", "settings": "for EC50: Human immunodeficiency virus 1, read-out: pEC50 C (converted); for pEC50 C: strain C, L100I", "experimental": "as §1, §2"}, "[5]": {"system": "Strain D (mutation Y188L in HIV reverse transcriptase)", "experiment": "cellular antiviral assay, HIV mutant strain D", "type": "cell-based", "settings": "for EC50: Human immunodeficiency virus 1, read-out: pEC50 D (converted); for pEC50 D: strain D, Y188L", "experimental": "as §1, §2"}, "[6]": {"system": "Strain E (mutations L100I and K103N in HIV reverse transcriptase)", "experiment": "cellular antiviral assay, HIV mutant strain E", "type": "cell-based", "settings": "for EC50: Human immunodeficiency virus 1, read-out: pEC50 E (converted); for pEC50 E: strain E, L100I and K103N", "experimental": "as §1, §2"}, "[7]": {"system": "Strain F (mutations K103N and Y181C in HIV reverse transcriptase)", "experiment": "cellular antiviral assay, HIV mutant strain F", "type": "cell-based", "settings": "for EC50: Human immunodeficiency virus 1, read-out: pEC50 F (converted); for pEC50 F: strain F, K103N and Y181C", "experimental": "as §1, §2"}, "[8]": {"system": "Strain G (mutations L100I, K103N, Y181C, V179I E138G L214F, V278V/I and A327A/V in HIV reverse transcriptase)", "experiment": "cellular antiviral assay, HIV mutant strain G", "type": "cell-based", "settings": "for EC50: Human immunodeficiency virus 1, read-out: pEC50 G (converted); for pEC50 G: strain G, L100I, K103N, Y181C, V179I E138G L214F, V278V/I and A327A/V", "experimental": "as §1, §2"}}, "data": [{"smiles": "Cc1cc(/C=C/C#N)cc(C)c1-n1cnc2cnc(Nc3ccc(C#N)cc3)nc21", "note": "[Compound 20]", "values": [{"measurement": "EC50", "setting": "[1]", "value": 0.2, "unit": "nM"}, {"measurement": "EC50", "setting": "[2]", "value": 2.51, "unit": "nM"}, {"measurement": "EC50", "setting": "[3]", "value": 0.631, "unit": "nM"}, {"measurement": "EC50", "setting": "[4]", "value": 0.631, "unit": "nM"}, {"measurement": "EC50", "setting": "[5]", "value": 15.8, "unit": "nM"}, {"measurement": "EC50", "setting": "[6]", "value": 7.94, "unit": "nM"}, {"measurement": "EC50", "setting": "[7]", "value": 39.8, "unit": "nM"}, {"measurement": "EC50", "setting": "[8]", "value": 2000, "unit": "nM"}, {"measurement": "melting point", "value": "> 250", "unit": "°C"}]}, {"smiles": "Cc1cc(/C=C/C#N)cc(C)c1-n1c(-c2ccccn2)nc2cnc(Nc3ccc(C#N)cc3)nc21", "note": "[Compound 25]", "values": [{"measurement": "pEC50 IIIB", "setting": "[1]", "value": 8.1}, {"measurement": "pEC50 A", "setting": "[2]", "value": 7.5}, {"measurement": "pEC50 B", "setting": "[3]", "value": 7.6}, {"measurement": "pEC50 C", "setting": "[4]", "value": 7.2}, {"measurement": "pEC50 D", "setting": "[5]", "value": 7.5}, {"measurement": "pEC50 E", "setting": "[6]", "value": 5.9}, {"measurement": "pEC50 F", "setting": "[7]", "value": 7.2}, {"measurement": "pEC50 G", "setting": "[8]", "value": 5.6}]}, {"smiles": "Cc1cc(/C=C/C#N)cc(C)c1-n1c(N)nc2cnc(Nc3ccc(C#N)cc3)nc21", "note": "[Compound 26]", "values": [{"measurement": "EC50", "setting": "[1]", "value": 2.51, "unit": "nM"}, {"measurement": "EC50", "setting": "[2]", "value": 25.1, "unit": "nM"}, {"measurement": "EC50", "setting": "[3]", "value": 12.6, "unit": "nM"}, {"measurement": "EC50", "setting": "[4]", "value": 20, "unit": "nM"}, {"measurement": "EC50", "setting": "[5]", "value": 79.4, "unit": "nM"}, {"measurement": "EC50", "setting": "[6]", "value": 126, "unit": "nM"}, {"measurement": "EC50", "setting": "[7]", "value": 63.1, "unit": "nM"}, {"measurement": "EC50", "setting": "[8]", "value": 12600, "unit": "nM"}]}, {"smiles": "Cc1cc(/C=C/C#N)cc(C)c1-n1ccc2c(C)nc(Nc3ccc(C#N)cc3)nc21", "note": "[Compound 28]", "values": [{"measurement": "pEC50 IIIB", "setting": "[1]", "value": 8.5}, {"measurement": "pEC50 A", "setting": "[2]", "value": 7.9}, {"measurement": "pEC50 B", "setting": "[3]", "value": 8.5}, {"measurement": "pEC50 C", "setting": "[4]", "value": 8.6}, {"measurement": "pEC50 D", "setting": "[5]", "value": 7.7}, {"measurement": "pEC50 E", "setting": "[6]", "value": 8.5}, {"measurement": "pEC50 F", "setting": "[7]", "value": 7.8}, {"measurement": "pEC50 G", "setting": "[8]", "value": 5.7}]}, {"smiles": "Cc1cc(/C=C/C#N)cc(C)c1-n1c(=S)[nH]c2cnc(Nc3ccc(C#N)cc3)nc21", "note": "[Compound 31]", "values": [{"measurement": "EC50", "setting": "[1]", "value": 1, "unit": "nM"}, {"measurement": "EC50", "setting": "[2]", "value": 12.6, "unit": "nM"}, {"measurement": "EC50", "setting": "[3]", "value": 2.51, "unit": "nM"}, {"measurement": "EC50", "setting": "[4]", "value": 2.51, "unit": "nM"}, {"measurement": "EC50", "setting": "[5]", "value": 79.4, "unit": "nM"}, {"measurement": "EC50", "setting": "[6]", "value": 398, "unit": "nM"}, {"measurement": "EC50", "setting": "[7]", "value": 39.8, "unit": "nM"}, {"measurement": "EC50", "setting": "[8]", "value": 15800, "unit": "nM"}, {"measurement": "melting point", "value": "> 250", "unit": "°C"}]}, {"smiles": "CCOC(=O)c1cc(C)c(N2CCc3c(C)nc(Nc4ccc(C#N)cc4)nc32)c(C)c1", "note": "[Compound 33]", "values": [{"measurement": "EC50", "setting": "[1]", "value": 50.1, "unit": "nM"}, {"measurement": "EC50", "setting": "[2]", "value": 2510, "unit": "nM"}, {"measurement": "EC50", "setting": "[3]", "value": 126, "unit": "nM"}, {"measurement": "EC50", "setting": "[4]", "value": 794, "unit": "nM"}, {"measurement": "EC50", "setting": "[5]", "value": 631, "unit": "nM"}, {"measurement": "EC50", "setting": "[6]", "value": 3980, "unit": "nM"}, {"measurement": "EC50", "setting": "[7]", "value": 3160, "unit": "nM"}, {"measurement": "EC50", "setting": "[8]", "value": 12600, "unit": "nM"}, {"measurement": "melting point", "value": 92, "unit": "°C"}]}, {"smiles": "C/C(C#N)=C\\c1cc(C)c(N2CCc3c(C)nc(Nc4ccc(C#N)cc4)nc32)c(C)c1", "note": "[Compound 34]", "values": [{"measurement": "EC50", "setting": "[1]", "value": 2, "unit": "nM"}, {"measurement": "EC50", "setting": "[2]", "value": 15.8, "unit": "nM"}, {"measurement": "EC50", "setting": "[3]", "value": 2.51, "unit": "nM"}, {"measurement": "EC50", "setting": "[4]", "value": 3.98, "unit": "nM"}, {"measurement": "EC50", "setting": "[5]", "value": 20, "unit": "nM"}, {"measurement": "EC50", "setting": "[6]", "value": 15.8, "unit": "nM"}, {"measurement": "EC50", "setting": "[7]", "value": 20, "unit": "nM"}, {"measurement": "EC50", "setting": "[8]", "value": 3980, "unit": "nM"}, {"measurement": "melting point", "value": 105, "unit": "°C"}]}]}
